Measured values as given in the supplement of paper PMC10307832.

Columns and labels:
Test in all cases: relative viability (nuclei count vs DMSO), 5 days (fraction); higher = more cells survive
[1] = compound: C1=CC(=CC=C1C2=CC(=C(S2)NC(=O)N)C(=O)N)F [TPCA-1] + CS(=O)(=O)CCNCc1ccc(-c2ccc3ncnc(Nc4ccc(OCc5cccc(F)c5)c(Cl)c4)c3c2)o1 [Lapatinib] (partner 2 µM)
Summary of the method: (§1)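 Five library-drug doses in √10 steps were combined with a fixed anchor-drug dose, or a single drug was given alone, by pin tool to lung cancer cell lines in 1536-well plates the day after seeding. Nuclei were stained and counted after 5 days. Relative viability is the nuclei count in treated wells over that in vehicle wells, taken as the median of duplicate plates.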

[2] = compound: C[C@]12O[C@H](C[C@]1(O)CO)n1c3ccccc3c3c4c(c5c6ccccc6n2c5c31)CNC4=O [Lestaurtinib] + O=C(c1cc(Cc2n[nH]c(=O)c3ccccc23)ccc1F)N1CCN(C(=O)C2CC2)CC1 [Olaparib] (partner 8 µM)
Summary of the method: as §1

[3] = compound: C1/C(=C\C2=CC=CS2)/C(=O)/C(=C/C3=CC=CS3)/C1 + N=C(N)NC(=N)NCCc1ccccc1 [Phenformin] (partner 250 µM)
Summary of the method: as §1

[4] = compound: C[C@]12O[C@H](C[C@]1(O)CO)n1c3ccccc3c3c4c(c5c6ccccc6n2c5c31)CNC4=O [Lestaurtinib] + N=C(N)NC(=N)NCCc1ccccc1 [Phenformin] (partner 250 µM)
Summary of the method: as §1

Row | Cell Line | relative viability ([1]; first compound 0.04 µM) | relative viability ([1]; first compound 0.1265 µM) | relative viability ([1]; first compound 0.4 µM) | relative viability ([1]; first compound 1.265 µM) | relative viability ([1]; first compound 4 µM) | relative viability ([2]; first compound 0.005 µM) | relative viability ([2]; first compound 0.01581 µM) | relative viability ([2]; first compound 0.05 µM) | relative viability ([2]; first compound 0.1581 µM) | relative viability ([2]; first compound 0.5 µM) | relative viability ([3]; first compound 0.2 µM) | relative viability ([3]; first compound 0.6325 µM) | relative viability ([3]; first compound 2 µM) | relative viability ([3]; first compound 6.325 µM) | relative viability ([3]; first compound 20 µM) | relative viability ([4]; first compound 0.005 µM) | relative viability ([4]; first compound 0.01581 µM) | relative viability ([4]; first compound 0.05 µM) | relative viability ([4]; first compound 0.1581 µM) | relative viability ([4]; first compound 0.5 µM)
1 | EBC-1 | 0.201 | 0.233 | 0.196 | 0.224 | 0.248 | 0.711 | 0.794 | 0.695 | 0.639 | 0.45 |  |  |  |  |  |  |  |  |  | 
2 | IA-LM | 0.64 | 0.804 | 0.87 | 0.626 | 0.896 | 0.835 | 0.944 | 0.991 | 0.819 | 0.774 |  |  |  |  |  |  |  |  |  | 
3 | LCLC-103H |  |  |  |  |  | 0.872 | 0.845 | 0.719 | 0.655 | 0.529 | 0.326 | 0.329 | 0.361 | 0.288 | 0.356 | 0.336 | 0.379 | 0.327 | 0.288 | 0.234
4 | NCI-H441 |  |  |  |  |  | 0.557 | 0.513 | 0.495 | 0.48 | 0.379 | 0.826 | 1.01 | 0.955 | 0.77 | 0.772 | 0.885 | 0.854 | 0.533 | 0.767 | 0.555
5 | NCI-H522 |  |  |  |  |  | 0.741 | 0.617 | 0.665 | 0.617 | 0.429 | 0.677 | 0.649 | 0.662 | 0.644 | 0.651 | 0.722 | 0.614 | 0.634 | 0.552 | 0.525
6 | NCI-H1299 | 0.962 | 0.979 | 0.95 | 0.963 | 0.949 | 0.994 | 1.06 | 0.814 | 0.89 | 0.721 |  |  |  |  |  |  |  |  |  | 
7 | NCI-H1563 | 1.08 | 0.943 | 0.919 | 0.736 | 0.795 |  |  |  |  |  | 0.672 | 0.66 | 0.655 | 0.614 | 0.593 | 0.625 | 0.711 | 0.677 | 0.577 | 0.58
8 | NCI-H1623 |  |  |  |  |  |  |  |  |  |  | 0.644 | 0.577 | 0.502 | 0.599 | 0.59 | 0.609 | 0.593 | 0.557 | 0.525 | 0.51
9 | NCI-H1648 |  |  |  |  |  |  | 0.979 |  | 1.08 | 0.478 |  |  |  |  |  |  |  |  |  | 
10 | NCI-H1703 | 1.07 | 0.902 | 1.18 | 0.805 | 0.988 | 0.437 | 0.285 | 0.145 | 0.212 | 0.123 |  |  |  |  |  |  |  |  |  | 
11 | NCI-H2342 |  |  |  |  |  | 0.44 | 0.432 | 0.439 | 0.43 | 0.501 | 0.535 | 0.63 | 0.689 | 0.524 | 0.519 | 0.545 | 0.656 | 0.551 | 0.652 | 0.613
12 | SW 900 |  |  |  |  |  | 0.92 | 1.12 | 0.958 | 1.34 | 1.07 | 0.613 | 0.551 | 0.875 | 0.69 | 0.541 | 0.69 | 0.715 | 0.63 | 0.803 | 0.4
